This note sets out measurements from US20210130312A1, “INHIBITORS OF EYA3-PROTEIN TYROSINE PHOSPHATASE IN DNA DAMAGE REPAIR SIGNALING OF PULMONARY ARTERIAL HYPERTENSION” (CHILDREN'S HOSPITAL MEDICAL CENTER, priority 2018, published 2021).

Assay [1] has as its system γ-H2AX and 53BP1 foci in PASMC. Nature of the assay: γ-H2AX and 53BP1 staining (DDR) in lungs from rats subject to the SuHx protocol. In kind it is in vivo, rat. The following applies: lungs of SuHx rats treated with EYA-PTP inhibitor. The text has this: γ-H2AX foci report on the existence of DSBs, and the assembly of functional DDR complexes is characterized by the presence of 53BP1 foci. Rats subject to the SuHx protocol show increased γ-H2AX and 53BP1 staining in both PAEC and PASMC, likely as a result of oxidative stress. Rats treated with EYA-PTP inhibitor BZ had reduced γ-H2AX staining, as well as reduced 53BP1 foci formation in PASMC.

Assay [2] deals with Sugen-Hypoxia (SuHx) rat model. The assay can be described thus: Sugen-Hypoxia (SuHx) rat model of PAH: RVSP by right heart catheterization, Fulton's index, PV remodeling. Type of assay: in vivo. The protocol:
Sugen-Hypoxia (SuHx) rat model was used where a single administration of the VEGF inhibitor SU-5416 is followed by 3 weeks of hypoxia (10% O2) and PAH develops between 3-5 weeks after rats (adult Sprague-Daley males) are returned to room air. To test the effect of EYA-PTP inhibition on the development of PAH, benzarone (BZ) was administered every 3 days for 5 weeks after return to room air. The rats were maintained for a further 3 weeks in room air and then right ventricular systolic pressure (RVSP) measured by right heart catheterization. The increase in RVSP in BZ-treated rats was 32% less in BZ-treated rats than in vehicle-treated rats. Fulton's index (right ventricle/left ventricle plus septum weight) was also lower (by 28% relative to vehicle-treated controls) in BZ-treated animals indicating reduced RV hypertrophy.

Where [3] appears, read: rat SuHx model of PH, statement in words.

Each structure is given as a SMILES string.

With `CCc1oc2ccccc2c1C(=O)c1ccc(O)cc1` [BZ, benzarone], in assay [1], the “53BP1 foci formation in PASMC” value is recorded as “reduced” and the γ-H2AX staining result was “reduced”. The “increase in RVSP, less than in vehicle-treated rats” value in assay [2] (SuHx rats, administered every 3 days for 5 weeks after return to room air, measured after a further 3 weeks in room air) worked out at 32%. In addition, the “Fulton's index (right ventricle/left ventricle plus septum weight), lower relative to vehicle-treated controls” value in assay [2] (SuHx rats, same regimen, indicates reduced RV hypertrophy) is 28%. In assay [2] (setting [3]), the PV remodeling result is given as “effectively reduces” and the RVSP result was “effectively reduces”.
